In patent US9516824B2, “Method for modulating the number of archesporial cells in a developing anther” (The Board of Trustees of the Leland Stanford Junior …, priority 2012, dated 2016):
Entries after “also recorded” stand apart in the source; their conditions may differ.

Columns and labels:
maize anthers [1] = assay: Oxygen tension / ROS manipulation of the tassel airspace (gas by hose or needle, chemical injection): locule cell counts and SPL/EN bilayer progression by confocal imaging; settings: for AR specification / AR cell counts compared to puncture controls: injected into tassel airspace: 1 mM H2O2, 10 mM KI, 200 μM PTIO, 48 h prior to dissection; for AR specification / AR cell counts compared to puncture controls / somatic bilayer formation / development / AR morphological differentiation: 100 μM L-NNA, 20 μM SNP; for somatic bilayer formation / development: injected: 1 mM H2O2, 200 μM PTIO, compared to puncture control and untreated; for peripheral counts compared to needle puncture control / total L2 counts compared to needle puncture control: injection of 1 mL of 1 mM H2O2 or 10 mM KI; for AR morphological differentiation: injected: 200 μM PTIO; for SPL/EN bilayer (somatic niche) formation: gas treatment by hose or needle, 24 or 48 h; for peripheral somatic cell counts: late stages after 48 hour gas exposure
Experimental: Fertile W23 inbred anthers were stained with propidium iodide and imaged in Z-stack using a Leica SP5 confocal microscope (6). The ontogeny of locular cell types was cataloged over ˜2.5 days as anthers grew in length from 100 to 300 μm. […] The morphological characteristics of pre-meiotic cells are well established (18).
N2 or O2 gas was administered through hoses threaded into the leaf whorl (FIG. 15B). […] Alternatively, nitrogen, oxygen, or compressed air (20% O2) were administered by connecting gas lines to a needle inserted into the tassel airspace (FIGS. 15, C and D). In all experiments, a low flow of gas was administered over a 24 (A619) or 48 hour period (W23). Total locule cells (FIGS. 2, B, H, and M), peripheral somatic cells (FIGS. 2, C, I, and N), and central AR cells (FIGS. 2, D, J, and O) were quantified.
Confocal imaging, and EdU and PI staining were performed as described previously (6). Oxygen probe was an Oxygraph Tx3 (NTH-Pst1-L5-NS40-0.8-YOP) obtained from Presens (Regensburg, Germany). All chemicals were obtained from Sigma Chemical Co. (St. Louis, Mo.) and dissolved in water at the indicated molarities and injected using a 26 gauge needle into the airspace surrounding the immature tassel.

maize anthers [2] = assay: Ectopic archesporial (AR) cell formation after reducing or oxidizing treatments; format: in vivo; settings: for ectopic AR location by CT: internal (near or in the CT and VT); for # having ectopic AR: number of anthers; for ectopic AR location by EPI: superficial (near or on the EPI)
[3] = fertile, needle trial, 48 h gas treatment
[4] = fertile genotype, listed as N2 (direct)
[5] = fertile genotype, listed as N2 (hose)
[6] = fertile genotype, listed as O2 (direct)
[7] = fertile genotype, listed as O2 (hose)

Row | SMILES | AR count (treatment effect) (maize anthers [1]; fertile genotype) | SPL/EN timing (treatment effect) (maize anthers [1]; fertile genotype) | AR specification / AR cell counts compared to puncture controls (maize anthers [1]) | somatic bilayer formation / development (maize anthers [1]) | AR count (treatment effect) (maize anthers [1]; mac1 genotype) | ectopic AR location by CT (maize anthers [2]; fertile genotype) | # having ectopic AR (maize anthers [2]; fertile genotype) | ectopic AR location by EPI (maize anthers [2]; fertile genotype) | ectopic AR location by CT (maize anthers [2]; mac1 genotype) | # having ectopic AR (maize anthers [2]; mac1 genotype) | ectopic AR location by EPI (maize anthers [2]; mac1 genotype) | AR specification in msca1 anthers (maize anthers [2]) | ectopic AR location by CT (maize anthers [2]; msca1 genotype) | # having ectopic AR (maize anthers [2]; msca1 genotype) | ectopic AR location by EPI (maize anthers [2]; msca1 genotype) | AR count (treatment effect) (maize anthers [1]; msca1 genotype) | AR per event (average count of ectopic AR cells in each instance) (maize anthers [2]; fertile genotype) | niche - forming (periclinal divisions generating EN/SPL-like bilayer around ectopic AR) (maize anthers [2]; fertile genotype) | further results
1 | c1ccc2c(c1)[I+]c1ccccc1-2 [DPI, Diphenylene iodonium] | – | – | – | – | – | – | – | – | – | – | – | – | – | – | – | – | – | – | effect on tassel tissues (maize anthers [1]; injected into tassel airspace): complete degeneration of the tassel tissues
2 | OO [H2O2, hydrogen peroxide] | fewer | delayed | lowered AR cell counts | inhibited subsequent somatic bilayer formation | extra | 0 | 0 | 0 | 0 | 0 | 0 | lacked AR | 0 | 0 | 0 | – | – | – | peripheral counts compared to needle puncture control (maize anthers [1]): greatly reduced; total L2 counts compared to needle puncture control (maize anthers [1]): greatly reduced; AR per event (average count of ectopic AR cells in each instance) (maize anthers [2]; msca1 genotype): 2; niche - forming (periclinal divisions generating EN/SPL-like bilayer around ectopic AR) (maize anthers [2]; msca1 genotype): yes
3 | [I-].[K+] [KI] | extra | early | dramatically promoted AR specification | – | extra | 0 | 2 | 2 | – | 0 | 0 | caused AR specification | – | 6 | 5 | extra | 7 | – | AR:total L2 ratios (maize anthers [1]; 10 mM KI injected): increased AR:total L2 ratios; peripheral counts compared to needle puncture control (maize anthers [1]): did not alter; total L2 counts compared to needle puncture control (maize anthers [1]): did not alter; AR per event (average count of ectopic AR cells in each instance) (maize anthers [2]; msca1 genotype): 3; percent of treated anthers having AR cells (maize anthers [2]; msca1 mutant, 20 μM SNP or KI injected): 9.5%
4 | N=C(NCCC[C@H](N)C(=O)O)N[N+](=O)[O-] [L-NNA, N^G-nitro-L-Arginine] | fewer | delayed | slightly repressed; also recorded: slightly suppressed AR counts | dramatically delayed | extra | 1 | 1 | 0 | 0 | 0 | 0 | lacked AR | 0 | 0 | 0 | – | 2 | yes | AR morphological differentiation (maize anthers [1]): slowed the morphological differentiation of central AR cells; also recorded: delayed AR morphological differentiation
5 | N#N [N2, nitrogen] | extra | early | – | – | extra | 0 | – | – | 2 | 7 | 5 | – | 0 | 0 | 0 | none | 5 | – | AR specification and AR cell counts compared to untreated fertile anthers (maize anthers [1]; fertile, all three gas protocols (hose 48 h W23, hose 24 h A619, needle)): early specification and excess AR cells; AR:total L2 ratio (maize anthers [1]; fertile, gas treatment): elevated ratios; SPL/EN bilayer (somatic niche) formation (maize anthers [1]; fertile): formed early; also recorded: precocious bilayer formation; central AR as fraction of total L2 cells (maize anthers [1]; fertile, gas treatment, early stages): up to 25%; peripheral somatic cell counts (maize anthers [1]; fertile): increased peripheral somatic cell counts; AR counts (maize anthers [1]; [3]): Excess presumptive AR cells; # having ectopic AR (maize anthers [2]; [4]): 4; # having ectopic AR (maize anthers [2]; [5]): 0; ectopic AR location by EPI (maize anthers [2]; [4]): 4; ectopic AR location by EPI (maize anthers [2]; [5]): 0; ectopic AR formation (maize anthers [2]; hose protocol): did not cause ectopic AR in any anthers; AR per event (average count of ectopic AR cells in each instance) (maize anthers [2]; mac1 genotype): 3
6 | O=O [O2, oxygen] | – | – | – | – | extra | – | – | – | 0 | 0 | 0 | – | 0 | 0 | 0 | none | 3.7 | ~half | AR count (treatment effect) (maize anthers [1]; [6]): extra; SPL/EN timing (treatment effect) (maize anthers [1]; [6]): delayed; AR count (treatment effect) (maize anthers [1]; [7]): fewer; SPL/EN timing (treatment effect) (maize anthers [1]; [7]): late; SPL/EN bilayer (somatic niche) formation (maize anthers [1]; fertile): delayed; AR specification (maize anthers [1]; fertile, hose gas treatment): repressed AR specification; AR counts (maize anthers [1]; fertile, hose, 24 hour exposure): significantly fewer AR than either untreated or N2; central AR counts (maize anthers [1]; fertile, hose, 48 hour treatment): far lower than N2; peripheral somatic cell counts (maize anthers [1]; fertile): increased peripheral somatic cells in the late stages; AR counts (maize anthers [1]; [3]): elevated in the needle trial, less than compressed air and dramatically less than nitrogen; ectopic AR location by CT (maize anthers [2]; [6]): 12; ectopic AR location by CT (maize anthers [2]; [7]): 0; # having ectopic AR (maize anthers [2]; [6]): 18; # having ectopic AR (maize anthers [2]; [7]): 0; ectopic AR location by EPI (maize anthers [2]; [6]): 6; ectopic AR location by EPI (maize anthers [2]; [7]): 0
7 | CC1(C)N([O])C(c2ccccc2)=[N+]([O-])C1(C)C [PTIO, 2-Phenyl-4,4,5,5-tetramethylimidazoline-1-oxyl-3-oxide] | fewer | delayed | slightly repressed; also recorded: slightly suppressed AR counts | dramatically delayed | extra | 3 | 4 | 1 | 0 | 0 | 0 | lacked AR | 0 | 0 | 0 | – | 5 | yes | AR morphological differentiation (maize anthers [1]): slowed the morphological differentiation of central AR cells; also recorded: delayed AR morphological differentiation
